According to patent US12503475B2 (Centessa Pharmaceuticals (UK) Limited, priority 2020, dated 2025):

Target: T1, human orexin type 2 receptor (hOX2R) (Homo sapiens, UniProt O43614)
T1 construct: expressed in transfected cells
T1 sequence (O43614 1-444): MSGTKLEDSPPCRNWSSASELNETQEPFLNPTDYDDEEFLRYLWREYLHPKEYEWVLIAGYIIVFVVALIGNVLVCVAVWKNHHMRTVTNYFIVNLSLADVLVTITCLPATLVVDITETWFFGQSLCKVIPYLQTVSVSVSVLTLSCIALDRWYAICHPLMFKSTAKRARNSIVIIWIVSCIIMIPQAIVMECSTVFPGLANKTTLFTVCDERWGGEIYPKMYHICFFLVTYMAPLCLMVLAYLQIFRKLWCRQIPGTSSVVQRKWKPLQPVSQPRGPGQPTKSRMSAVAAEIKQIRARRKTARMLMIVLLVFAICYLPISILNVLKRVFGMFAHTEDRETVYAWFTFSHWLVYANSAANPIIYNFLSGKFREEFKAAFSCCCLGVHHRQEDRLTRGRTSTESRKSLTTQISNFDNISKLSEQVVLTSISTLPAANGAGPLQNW
Experiment: Measurement of orexin type 2 receptor agonist activity (FLIPR calcium fluorescence)
Assay type: cell-based
Conditions: CHO cells expressing hOX2R, FLIPR calcium fluorescence; for EC50: read-out: hOx2 pEC50 (converted); for Emax: CHO, read-out: hOx2 Emax (%)
Summary of the method: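 Agonism was read as fluorescence in cells stably expressing human OX2R. E. is the response at 10 μM relative to orexin A as full agonist (100%).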

Row | EC50 [nM] | Emax [%] | Structure (SMILES)
1 | 0.0794 to 1 | 90 to 100 | O=C(C1CCC1)N1CC2(CC2)C(NS(=O)(=O)CF)C1Cc1cccc(-c2ccccc2)c1F (racemic) [Compound 106, N-(5-5(cyclobutanecarbonyl)-6-((2-fluoro-[1,1′-biphenyl]-3-yl)methyl)-5-azaspiro[2.4]heptan-7-yl)-1-fluoromethanesulfonamide]
2 | 1 to 10 | 90 to 100 | COC[C@@H](C)NC(=O)N1CC2(CC2)[C@H](NS(C)(=O)=O)[C@@H]1Cc1cccc(-c2ccccc2)c1F [Compound 325, (6S,7S)-6-((2-fluoro-[1,1′-biphenyl]-3-yl)methyl)-N-((R)-1-methoxypropan-2-yl)-7-(methylsulfonamido)-5-azaspiro[2.4]heptane-5-carboxamide]
3 | 1 to 10 | 90 to 100 | CCNC(=O)N1CC2(CC2)C(NS(C)(=O)=O)C1Cc1cccc(-c2ccccc2)c1F (racemic) [Compound 38, N-ethyl-6-((2-fluoro-[1,1′-biphenyl]-3-yl)methyl)-7-(methylsulfonamido)-5-azaspiro[2.4]heptane-5-carboxamide]
4 | 0.0794 to 1 | 90 to 100 | COC1(CNC(=O)N2CC3(CC3)[C@H](NS(=O)(=O)C(F)F)[C@@H]2Cc2cccc(-c3ccccc3)c2F)CC1 [Compound 215, (6S,7S)-7-((difluoromethyl)sulfonamido)-6-((2-fluoro-[1,1′-biphenyl]-3-yl)methyl)-N-((1-methoxycyclopropyl)methyl)-5-azaspiro[2.4]heptane-5-carboxamide]
5 | 1 to 10 | 90 to 100 | CS(=O)(=O)N[C@@H]1[C@H](Cc2cccc(-c3ccccc3)c2F)N(C(=O)NCC2COC2)CC12CC2 [Compound 334, (6S,7S)-6-((2-fluoro-[1,1′-biphenyl]-3-yl)methyl)-7-(methylsulfonamido)-N-(oxetan-3-ylmethyl)-5-azaspiro[2.4]heptane-5-carboxamide]
6 | 1 to 10 | 90 to 100 | CS(=O)(=O)N[C@@H]1[C@H](Cc2cccc(-c3ccccc3)c2F)N(C(=O)NCCO)CC12CC2 (racemic) [Compound 307, 6-((2-fluoro-[1,1′-biphenyl]-3-yl)methyl)-N-(2-hydroxyethyl)-7-(methylsulfonamido)-5-azaspiro[2.4]heptane-5-carboxamide]
7 | 1 to 10 | 90 to 100 | O=C(NCC1(F)CC1)N1CC2(CC2)[C@H](NS(=O)(=O)C(F)F)[C@@H]1Cc1cccc(-c2ccccc2)c1F [Compound 166, (6S,7S)-7-((difluoromethyl)sulfonamido)-6-((2-fluoro-[1,1′-biphenyl]-3-yl)methyl)-N-((1-fluorocyclopropyl)methyl)-5-azaspiro[2.4]heptane-5-carboxamide]
8 | 1 to 10 | 90 to 100 | CNS(=O)(=O)N[C@@H]1[C@H](Cc2cccc(-c3ccccc3)c2F)N(C(=O)[C@H]2CCO2)CC12CC2 [Compound 65, N-((6S,7S)-6-((2-fluoro-[1,1′-biphenyl]-3-yl)methyl)-5-((R)-oxetane-2-carbonyl)-5-azaspiro[2.4]heptan-7-yl)-N-methylsulfuric diamide]
9 | 1 to 10 | 90 to 100 | CS(=O)(=O)NC1C(Cc2cccc(-c3ccccc3)c2F)N(C(=O)N2CC(F)C2)CC12CC2 (racemic) [Compound 45, N-(6-((2-fluoro-[1,1′-biphenyl]-3-yl)methyl)-5-(3-fluoroazetidine-1-carbonyl)-5-azaspiro[2.4]heptan-7-yl)methanesulfonamide]
10 | 1 to 10 | 90 to 100 | N#CC1(C(=O)N2CC3(CC3)[C@H](NS(=O)(=O)CF)[C@@H]2Cc2cccc(-c3ccccc3)c2F)CCC1 [Compound 181, N-((6S,7S)-5-(1-cyanocyclobutane-1-carbonyl)-6-((2-fluoro-[1,1′-biphenyl]-3-yl)methyl)-5-azaspiro[2.4]heptan-7-yl)-1-fluoromethanesulfonamide]

More lines, now with the values behind:

Row | Structure (SMILES) | EC50 [nM] | Emax [%]
11 | CS(=O)(=O)NC1C(Cc2cccc(-c3ccccc3)c2)N(C(=O)C23CC2C3)CC12CC2 (racemic) [Compound 66, N-(6-([1,1′-biphenyl]-3-ylmethyl)-5-(bicyclo[1.1.0]butane-1-carbonyl)-5-azaspiro[2.4]heptan-7-yl)methanesulfonamide] | 10 to 100 | 90 to 100
12 | CS(=O)(=O)N[C@@H]1[C@H](Cc2cc(F)cc(-c3cccc(F)c3)c2F)N(C(=O)[C@H]2CCO2)CC12CC2 [Compound 122, N-((6S,7S)-5-((R)-oxetane-2-carbonyl)-6-((2,3′,5-trifluoro-[1,1′-biphenyl]-3-yl)methyl)-5-azaspiro[2.4]heptan-7-yl)methanesulfonamide] | 0.0794 to 1 | 90 to 100
13 | O=C(NCC(F)(F)F)N1CC2(CC2)[C@H](NS(=O)(=O)C(F)F)[C@@H]1Cc1cccc(-c2ccccc2)c1F [Compound 200, (6S,7S)-7-((difluoromethyl)sulfonamido)-6-((2-fluoro-[1,1′-biphenyl]-3-yl)methyl)-N-(2,2,2-trifluoroethyl)-5-azaspiro[2.4]heptane-5-carboxamide] | 1 to 10 | 90 to 100
14 | COC1CN(C(=O)N2CC3(CC3)[C@H](NS(=O)(=O)CF)[C@@H]2Cc2cccc(-c3cc(F)cc(F)c3)c2F)C1 [Compound 402, 1-fluoro-N-((6S,7S)-5-(3-methoxyazetidine-1-carbonyl)-6-((2,3′,5′-trifluoro-[1,1′-biphenyl]-3-yl)methyl)-5-azaspiro[2.4]heptan-7-yl)methanesulfonamide] | 1 to 10 | 90 to 100
15 | O=C([C@H]1CCO1)N1CC2(CC2)[C@H](NS(=O)(=O)CF)[C@@H]1Cc1cc(F)cc(-c2cc(F)cc(F)c2)c1F [Compound 227, 1-fluoro-N-((6S,7S)-5-((R)-oxetane-2-carbonyl)-6-((2,3′,5,5′-tetrafluoro-[1,1′-biphenyl]-3-yl)methyl)-5-azaspiro[2.4]heptan-7-yl)methanesulfonamide] | 1 to 10 | 90 to 100
16 | CS(=O)(=O)N[C@@H]1[C@H](Cc2cc(F)cc(-c3ccccc3)c2F)N(C(=O)[C@H]2CCO2)CC12CC2 [Compound 59, N-((6S,7S)-6-((2,5-difluoro-[1,1′-biphenyl]-3-yl)methyl)-5-((R)-oxetane-2-carbonyl)-5-azaspiro[2.4]heptan-7-yl)methanesulfonamide] | 1 to 10 | 90 to 100
17 | CS(=O)(=O)N[C@@H]1[C@H](Cc2cccc(-c3cccc(F)c3)c2F)N(C(=O)[C@H]2CCO2)CC12CC2 [Compound 67, N-((6S,7S)-6-((2,3′-difluoro-[1,1′-biphenyl]-3-yl)methyl)-5-((R)-oxetane-2-carbonyl)-5-azaspiro[2.4]heptan-7-yl)methanesulfonamide] | 1 to 10 | 90 to 100
18 | CCS(=O)(=O)N[C@@H]1[C@H](Cc2cccc(-c3ccccc3)c2)N(C(=O)[C@H]2CCO2)CC12CC2 [Compound 41] | 1 to 10 | 90 to 100
19 | CS(=O)(=O)N[C@@H]1[C@H](Cc2cccc(-c3cc(F)cc(F)c3)c2F)N(C(=O)[C@H]2CCO2)CC12CC2 [Compound 39, N-((6S,7S)-5-((R)-oxetane-2-carbonyl)-6-((2,3′,5′-trifluoro-[1,1′-biphenyl]-3-yl)methyl)-5-azaspiro[2.4]heptan-7-yl)methanesulfonamide] | 1 to 10 | 90 to 100
20 | O=C(NCC1(F)CC1)N1CC2(CC2)[C@H](NS(=O)(=O)C(F)F)[C@@H]1Cc1cccc(-c2cc(F)cc(F)c2)c1F [Compound 235, (6S,7S)-7-((difluoromethyl)sulfonamido)-N-((1-fluorocyclopropyl)methyl)-6-((2,3′,5′-trifluoro-[1,1′-biphenyl]-3-yl)methyl)-5-azaspiro[2.4]heptane-5-carboxamide] | 1 to 10 | 90 to 100
21 | O=C([C@H]1CCO1)N1CC2(CC2)[C@H](NS(=O)(=O)C(F)F)[C@@H]1Cc1cc(F)cc(-c2cc(F)cc(F)c2)c1F [Compound 220, 1,1-difluoro-N-((6S,7S)-5-((R)-oxetane-2-carbonyl)-6-((2,3′,5,5′-tetrafluoro-[1,1′-biphenyl]-3-yl)methyl)-5-azaspiro[2.4]heptan-7-yl)methanesulfonamide] | 1 to 10 | 90 to 100
22 | CS(=O)(=O)N[C@@H]1[C@H](Cc2cccc(-c3cccc(Cl)c3)c2F)N(C(=O)[C@H]2CCO2)CC12CC2 [Compound 161, N-((6S,7S)-6-((3′-chloro-2-fluoro-[1,1′-biphenyl]-3-yl)methyl)-5-((R)-oxetane-2-carbonyl)-5-azaspiro[2.4]heptan-7-yl)methanesulfonamide] | 1 to 10 | 90 to 100
23 | CCN(C)S(=O)(=O)N[C@@H]1[C@H](Cc2cccc(-c3ccccc3)c2)N(C(=O)[C@H]2CCO2)CC12CC2 [Compound 78, N-((6S,7S)-6-([1,1′-biphenyl]-3-ylmethyl)-5-((R)-oxetane-2-carbonyl)-5-azaspiro[2.4]heptan-7-yl)-N-methyl-N-ethylsulfuric diamide] | 10 to 100 | 90 to 100
24 | O=C(NCC(F)F)N1CC2(CC2)[C@H](NS(=O)(=O)CF)[C@@H]1Cc1cc(F)cc(-c2ccccc2)c1F [Compound 191, (6S,7S)-6-((2,5-difluoro-[1,1′-biphenyl]-3-yl)methyl)-N-(2,2-difluoroethyl)-7-((fluoromethyl)sulfonamido)-5-azaspiro[2.4]heptane-5-carboxamide] | 1 to 10 | 90 to 100
